Experimental findings from ChEMBL document CHEMBL5233262, “Anti-inflammatory activity of naturally occuring diarylheptanoids - A review” (Bioorg Med Chem, 2021) are described below.

A value given as a limit tells only on which side of the number the result lay.

Test [1] relates to RAW264.7. Nature of the test: Antiinflammatory activity in mouse RAW264.7 cells assessed as inhibition of LPS-induced NO production preincubated for 1 hrs followed by LPS stimulation and measured after 24 hrs by Griess reagent based analysis. It is filed as functional, cell-based.
Test [2] is described as follows: Antioxidant activity assessed as nitroblue tetrazolium superoxide radical scavenging activity incubated for 10 mins by spectrophotometric analysis. The format is functional.
Test [3] concerns RAW264.7. Nature of the test: Antiinflammatory activity in mouse RAW264.7 cells assessed as inhibition of LPS-induced NO production incubated for 20 hrs by Griess method. It is filed as functional, cell-based. The following applies: RAW264.7, 20 h.
The nature of test [4]: Antioxidant activity assessed as nitroblue tetrazolium superoxide radical scavenging activity by spectrophotometric analysis. It is filed as functional.
Test [5] has as its system RAW264.7. The test can be described thus: Antiinflammatory activity in mouse RAW264.7 cells assessed as inhibition of LPS-induced NO production incubated for 18 hrs by Griess method. To be noted: RAW264.7, 18 h. The format is functional, cell-based. (In general: The Griess reaction detects nitrite, a stable product of nitric oxide.)
Test [6] concerns RAW264.7. Nature of the test: Antiinflammatory activity in mouse RAW264.7 cells assessed as inhibition of LPS-induced NO production incubated for 24 hrs by Griess method. It is filed as functional, cell-based. To be noted: RAW264.7, 24 h.
The nature of test [7]: Antioxidant activity assessed as DPPH radical scavenging activity incubated for 30 mins by spectrophotometric analysis. The format is functional. Background: Loss of DPPH colour is used to gauge radical scavenging.
Test [8] has as its system RAW264.7. The test can be described thus: Antiinflammatory activity in mouse RAW264.7 cells assessed as inhibition of LPS-induced NO production incubated for 24 hrs by Griess reagent based analysis. To be noted: RAW264.7, 24 h. It is filed as functional, cell-based.
Test [9] concerns RAW264.7. Nature of the test: Antiinflammatory activity in mouse RAW264.7 cells assessed as inhibition of LPS-induced TNFalpha production preincubated for 1 hr followed by LPS stimulation and measured after 18 hrs by immunoassay. The format is functional, cell-based.
The subject of test [10] is RAW264.7. Nature of the test: Antiinflammatory activity in mouse RAW264.7 cells assessed as inhibition of LPS-induced NF-kappaB expression preincubated for 1 hr followed by LPS stimulation and measured after 18 hrs by qPCR analysis. It is filed as functional, cell-based.
The test system of test [11] is RAW264.7. Nature of the test: Antiinflammatory activity in mouse RAW264.7 cells assessed as inhibition of LPS-induced NO production at 30 uM preincubated for 0.5 hrs followed by LPS stimulation and measured after 24 hrs by Griess reagent based analysis. It is filed as functional. The following applies: time 24.5 hrs.
The next test deals with Mus musculus. Nature of the test: Antiinflammatory activity in ICR mouse model of TPA-induced ear edema assessed as inhibition of ear inflammation at 1 mg,TOP for 30 mins followed by TPA addition and measured after 6 hrs. The format is functional. The following applies: time 390 min, 6.5 h.
A further test has as its system J774.A1. The test can be described thus: Antiinflammatory activity in mouse J774.A1 cells assessed as inhibition of LPS-induced NO production incubated for 24 hrs by Griess reagent based analysis. The following applies: J774.A1, 24 h. The format is functional, cell-based.
The test system of test [12] is RAW264.7. Nature of the test: Antiinflammatory activity in mouse RAW264.7 cells assessed as inhibition of LPS-induced NF-kappaB activation incubated for 24 hrs by SEAP microplate reader analysis. It is filed as functional, cell-based. To be noted: RAW264.7, 24 h.
A further test has as its system BV-2. The test can be described thus: Antiinflammatory activity in mouse BV-2 cells assessed as inhibition of LPS-induced NO production at 10 uM preincubated for 1 hrs followed by LPS stimulation and measured after 24 hrs by Griess assay. The format is functional. To be noted: time 25 hrs.
Test [13] deals with RAW264.7. Nature of the test: Antiinflammatory activity in mouse RAW264.7 cells assessed as inhibition of LPS-induced NO production at 10 ug/ml incubated for 20 hrs by Griess reagent based microplate reader analysis. It is filed as functional.
The subject of test [14] is RAW264.7. Nature of the test: Antiinflammatory activity in mouse RAW264.7 cells assessed as inhibition of LPS-induced NO production incubated for 20 hrs by Griess reagent based microplate reader analysis. It is filed as functional, cell-based. To be noted: RAW264.7, 20 h.
Test [15] relates to Hepatocyte. The test can be described thus: Hepatoprotective activity against CCL4-induced rat hepatocyte toxicity assessed as decrease in ALT level at 1 uM preincubated for 30 mins followed by CCL4 addition and measured after 180 mins by colorimetric method. The format is functional. Also noted: scale not given: the % may be the effect or the level left. To be noted: time 210 min.

Test [16] concerns Hepatocyte. Nature of the test: Hepatoprotective activity against CCL4-induced rat hepatocyte toxicity assessed as decrease in TNF-alpha level at 1 uM preincubated for 30 mins followed by CCL4 addition and measured after 180 mins by ELISA. The format is functional. Also on record: scale not given: the % may be the effect or the level left. To be noted: time 210 min.
Test [17] relates to Hepatocyte. Nature of the test: Hepatoprotective activity against CCL4-induced rat hepatocyte toxicity assessed as decrease in IL-1beta level at 1 uM preincubated for 30 mins followed by CCL4 addition and measured after 180 mins by ELISA. To be noted: time 210 min. Also noted: scale not given: the % may be the effect or the level left. It is filed as functional. A general note: An ELISA detects its analyte on a solid surface through an enzyme-linked reagent.

Test [18] has as its system RAW264.7. The test can be described thus: Antiinflammatory activity in mouse RAW264.7 cells assessed as inhibition of LPS-induced TNFalpha level preincubated for 1 hrs followed by LPS stimulation and measured after 24 hrs by ELISA. The format is functional, cell-based.
Test [19] relates to RAW264.7. The test can be described thus: Antiinflammatory activity in mouse RAW264.7 cells assessed as inhibition of LPS-induced NO production preincubated for 1 hrs followed by LPS stimulation and measured after 24 hrs by Griess method. The format is functional, cell-based.
The test system of test [20] is Hepatocyte. The test can be described thus: Hepatoprotective activity against CCL4-induced rat hepatocyte toxicity assessed as decrease in TBARS level by measuring MDA formation at 1 uM preincubated for 30 mins followed by CCL4 addition and measured after 180 mins by TBARS method. It is filed as functional. Also on record: scale not given: the % may be the effect or the level left. To be noted: time 210 min.

Test [21] deals with U-937. The test can be described thus: Antiinflammatory activity in PMA-stimulated human U-937 cells assessed as inhibition of TNFalpha secretion at 1 ug/ml by ELISA. It is filed as functional.
For test [22], the system named is U-937. The test can be described thus: Antiinflammatory activity in PMA-stimulated human U-937 cells assessed as inhibition of IL-1beta protein expression at 1 ug/ml by western blot analysis. It is filed as functional.
Test [23] has as its system U-937. The test can be described thus: Antiinflammatory activity in PMA-stimulated human U-937 cells assessed as inhibition of IL-1beta secretion at 1 ug/ml by ELISA. It is filed as functional.
Test [24] relates to Rattus norvegicus. The test can be described thus: Antiinflammatory activity in rat model of ethyl phenylpropiolate-induced ear edema assessed as 30% reduction in ear thickness administered topically and measured after 30 mins. It is filed as functional. To be noted: 0.5 h.
Test [25] concerns Rattus norvegicus. The test can be described thus: Antiinflammatory activity in rat model of ethyl phenylpropiolate-induced ear edema assessed as reduction in ear thickness administered topically and measured after 1 hr. It is filed as functional.
The test system of test [26] is Rattus norvegicus. Nature of the test: Antiinflammatory activity in rat model of ethyl phenylpropiolate-induced ear edema assessed as reduction in ear thickness administered topically and measured after 30 mins. It is filed as functional. The following applies: 0.5 h.
The test system of test [27] is Rattus norvegicus. Nature of the test: Antiinflammatory activity in rat model of ethyl phenylpropiolate-induced ear edema assessed as 30% reduction in ear thickness administered topically and measured after 1 hr. The format is functional.
For test [28], the system named is RAW264.7. The test can be described thus: Antiinflammatory activity in mouse RAW264.7 cells assessed as inhibition of LPS-induced TNF-alpha production. It is filed as functional, cell-based.
In test [29] the test system is RAW264.7. The test can be described thus: Antiinflammatory activity in mouse RAW264.7 cells assessed as inhibition of LPS-induced IL-6 production. The format is functional, cell-based.
The test system of test [30] is RAW264.7. The test can be described thus: Antiinflammatory activity in mouse RAW264.7 cells assessed as inhibition of LPS-induced IL-1beta production. The format is functional, cell-based.

Usually IC50 stands for the concentration that gives 50% inhibition. As to `O=C(CCCCc1ccc(O)c(O)c1)CCc1ccc(O)c(O)c1`, the IC50 came out at 6.6 µM with RAW264.7 [1]; 12.7 µM in test [2]; 2.6 µM in the test on RAW264.7 [3]; 30.1 µM in test [4]; 16.8 µM in the test with RAW264.7 [5]; 22.7 µM in the test on RAW264.7 [6]. The IC50 in test [7] was 20.1 µM.
On to `COc1ccc2cc1Oc1ccc(c(O)c1OC)CCCC[C@H](O)CC2`, for which the IC50 in the test on RAW264.7 [8] stood at 18.2 µM; in the test with RAW264.7 [9], 22.3 µM; in the test with RAW264.7 [10] it was 9.4 µM.
As a reminder, the inhibition is the share of the control response that was lost under treatment. As for `OC[C@H]1O[C@@H](O[C@H](CCCCc2ccc(O)cc2)CCc2ccc(O)cc2)[C@H](O)[C@@H](O)[C@@H]1O`, the inhibition at 30 µM in the test on RAW264.7 [11] worked out at 24%. The ID50 in the test with Mus musculus amounted to 0.66 mg. For the same compound, in the test on J774.A1, the IC50 was determined as 100 µM.
`C=C1C(=O)O[C@@H]2[C@H]3O[C@]3(C)CC/C=C(\C)CC[C@@H]12`: the 50% inhibitory concentration (IC50) with RAW264.7 [8] worked out at 2.4 µM; in the test with RAW264.7 [9], 2.6 µM; with RAW264.7 [12], 3.4 µM; in the test with RAW264.7 [10], 3.4 µM.
In the case of `Oc1ccc(CC[C@@H](O)C[C@@H](O)CCc2ccc(O)cc2)cc1`, the inhibition at 10 µM in the test on BV-2 came out at 65.2%.
Turning to `COc1cc(CCC(O)CC(O)CCc2ccccc2)ccc1O` (stereo not drawn), in the test with RAW264.7 [13], the inhibition at 10 µg/mL was 27%. Also, the IC50 with RAW264.7 [14] was more than 30 µM.
With `COc1cc(/C=C/C(=O)CC(=O)/C=C/c2ccc(O)c(OC)c2)ccc1O` [CURCUMIN], the Activity was 57.6% in the test with Hepatocyte [15], 37.1% in the test on Hepatocyte [16], 63.3% in the test with Hepatocyte [17] and 39.2% in the test on Hepatocyte [20]. The IC50 in the test on RAW264.7 [18] was 11.2 µM; in the test on RAW264.7 [19] it was 12.3 µM.
Regarding `COC(=O)[C@@H](N)CCCNC(=N)N[N+](=O)[O-]` [L-NAME], the inhibition at 10 µM in the test on BV-2 came to 70.5%.
`Oc1ccc(CCC(O)CC/C=C/c2ccccc2)cc1O` (stereo not drawn): the inhibition at 1 µg/mL came to 44% in the test on U-937 [21], 64% in the test with U-937 [22] and 30% in the test on U-937 [23].
For `CCCCC1C(=O)N(c2ccccc2)N(c2ccc(O)cc2)C1=O` (stereo not drawn) [OXYPHENBUTAZONE ANHYDROUS], the ID30 in the test with Rattus norvegicus [24] is 0.2 µg; in the test on Rattus norvegicus [27], 0.3 µg. Moreover, the ID50 in the test with Rattus norvegicus [25] is 46 µg; with Rattus norvegicus [26], 12 µg.
Turning to `Oc1ccc(CC[C@@H](O)C[C@H](O)CCc2ccc(O)cc2)cc1` [(+)-HANNOKINOL], the inhibition at 10 µM with BV-2 stood at 51.3%.
With `COc1cc2cc(c1O)-c1cc(ccc1O)CC[C@H](OS(=O)(=O)O)CCCC2`, the figures for the 50% inhibitory concentration (IC50) in the test with RAW264.7 [28], with RAW264.7 [29] and in the test on RAW264.7 [30] were 20.1 µM, 22.7 µM and 22.9 µM, respectively.
